In the supplement of paper PMC11061612:

Key:
[1] = tested on: NCI-H2066 (Squamous Cell Lung Carcinoma); test: combination Emax (second highest fraction inhibited in the dose matrix, 72 h); higher = more inhibition; extreme values may be limits of the assay
Summary of the method: (§1)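 Bliss excess equals the observed combination effect minus the expected value EA + EB − EA·EB, where EA and EB are the effects of each agent alone. Combination Emax is the second-highest inhibition within the matrix. Inhibition was scaled from CellTiter-Glo 2.0 luminescence, with 0 set by vehicle wells and 1 by blank wells, after 72 hours of two-drug dosing of cells plated in 1536-well plates.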

[2] = tested on: TT (Thyroid Gland Carcinoma); test: as above
Summary of the method: as §1

[3] = tested on: CAPAN-2 (Pancreatic Carcinoma); test: as above
Summary of the method: as §1

[4] = tested on: CCK-81 (Colorectal Carcinoma); test: as above
Summary of the method: as §1

[5] = tested on: PANC-10-05 (Pancreatic Carcinoma); test: as above
Summary of the method: as §1

NY (Osteosarcoma) [6] = test: as above
Summary of the method: as §1

[7] = tested on: ONS-76 (Other Solid Carcinomas); test: as above
Summary of the method: as §1

[8] = tested on: COLO-320-HSR (Colorectal Carcinoma); test: as above
Summary of the method: as §1

[9] = tested on: VCaP (Prostate Carcinoma); test: as above
Summary of the method: as §1

U-2-OS (Osteosarcoma) [10] = test: as above
Summary of the method: as §1

IGR-37 (Melanoma) [11] = test: as above
Summary of the method: as §1

[12] = tested on: ECC10 (Gastric Carcinoma); test: as above
Summary of the method: as §1

[13] = tested on: NCI-H1581 (Non-Small Cell Lung Carcinoma); test: as above
Summary of the method: as §1

[14] = tested on: BICR22 (Oral Cavity Carcinoma); test: as above
Summary of the method: as §1

[15] = tested on: KARPAS-422 (B-Cell Non-Hodgkin's Lymphoma); test: as above
Summary of the method: as §1

[16] = tested on: NCI-H64 (Small Cell Lung Carcinoma); test: as above
Summary of the method: as §1

[17] = tested on: NCI-H2066 (Squamous Cell Lung Carcinoma); test: Bliss excess, mean over the matrix (fraction); higher = more synergy
Summary of the method: as §1

[18] = tested on: TT (Thyroid Gland Carcinoma); test: as above
Summary of the method: as §1

[19] = tested on: CAPAN-2 (Pancreatic Carcinoma); test: as above
Summary of the method: as §1

[20] = tested on: CCK-81 (Colorectal Carcinoma); test: as above
Summary of the method: as §1

[21] = tested on: PANC-10-05 (Pancreatic Carcinoma); test: as above
Summary of the method: as §1

NY (Osteosarcoma) [22] = test: as above
Summary of the method: as §1

[23] = tested on: ONS-76 (Other Solid Carcinomas); test: as above
Summary of the method: as §1

[24] = tested on: COLO-320-HSR (Colorectal Carcinoma); test: as above
Summary of the method: as §1

[25] = tested on: NCI-H1666 (Lung Adenocarcinoma); test: as above
Summary of the method: as §1

[26] = tested on: VCaP (Prostate Carcinoma); test: as above
Summary of the method: as §1

U-2-OS (Osteosarcoma) [27] = test: as above
Summary of the method: as §1

IGR-37 (Melanoma) [28] = test: as above
Summary of the method: as §1

[29] = tested on: ECC10 (Gastric Carcinoma); test: as above
Summary of the method: as §1

[30] = tested on: NCI-H1581 (Non-Small Cell Lung Carcinoma); test: as above
Summary of the method: as §1

[31] = tested on: BICR22 (Oral Cavity Carcinoma); test: as above
Summary of the method: as §1

FU97 (Gastric Carcinoma) [32] = test: as above
Summary of the method: as §1

[33] = tested on: KARPAS-422 (B-Cell Non-Hodgkin's Lymphoma); test: as above
Summary of the method: as §1

[34] = tested on: NCI-H64 (Small Cell Lung Carcinoma); test: as above
Summary of the method: as §1

[35] = tested on: NCI-H1666 (Lung Adenocarcinoma); test: combination Emax (second highest fraction inhibited in the dose matrix, 72 h); higher = more inhibition; extreme values may be limits of the assay
Summary of the method: as §1

FU97 (Gastric Carcinoma) [36] = test: as above
Summary of the method: as §1

| SMILES | combination Emax [1] | combination Emax [2] | combination Emax [3] | combination Emax [4] | combination Emax [5] | combination Emax (NY (Osteosarcoma) [6]) | combination Emax [7] | combination Emax [8] | combination Emax [9] | combination Emax (U-2-OS (Osteosarcoma) [10]) | combination Emax (IGR-37 (Melanoma) [11]) | combination Emax [12] | combination Emax [13] | combination Emax [14] | combination Emax [15] | combination Emax [16] | Bliss excess [17] | Bliss excess [18] | Bliss excess [19] | Bliss excess [20] | Bliss excess [21] | Bliss excess (NY (Osteosarcoma) [22]) | Bliss excess [23] | Bliss excess [24] | Bliss excess [25] | Bliss excess [26] | Bliss excess (U-2-OS (Osteosarcoma) [27]) | Bliss excess (IGR-37 (Melanoma) [28]) | Bliss excess [29] | Bliss excess [30] | Bliss excess [31] | Bliss excess (FU97 (Gastric Carcinoma) [32]) | Bliss excess [33] | Bliss excess [34] | combination Emax [35] | combination Emax (FU97 (Gastric Carcinoma) [36]) |
| --- | --- | --- | --- | --- | --- | --- | --- | --- | --- | --- | --- | --- | --- | --- | --- | --- | --- | --- | --- | --- | --- | --- | --- | --- | --- | --- | --- | --- | --- | --- | --- | --- | --- | --- | --- | --- |
| CN(CCO)CC[C@H](CSc1ccccc1)Nc1ccc(S(=O)(=O)NC(=O)c2ccc(N3CCC([C@@H](O)c4ccccc4-c4ccc(Cl)cc4)CC3)cc2)cc1S(=O)(=O)C(F)(F)F [AZD4320] + CS(=O)(=O)CCNCc1ccc(-c2ccc3ncnc(Nc4ccc(OCc5cccc(F)c5)c(Cl)c4)c3c2)o1 [Lapatinib] (first compound max 1 µM, 7x7, partner max 10 µM) | 0.917 | 0.363 | 0.947 | 1 | 0.72 | 0.564 | 0.839 | 0.261 | 0.434 | 0.571 | 0.282 | 1 | 0.398 | 0.958 | 0.985 | 0.995 | -0.0109 | 0.012 | 0.0523 | 0.0767 | -0.021 | 0.0035 | 0.0068 | -0.0638 | 0.0943 | 0.0003 | 0.0382 | -0.0519 | 0.0318 | -0.0047 | 0.0806 | -0.0253 | 0.0596 | 0.0352 | – | – |
| CN(CCO)CC[C@H](CSc1ccccc1)Nc1ccc(S(=O)(=O)NC(=O)c2ccc(N3CCC([C@@H](O)c4ccccc4-c4ccc(Cl)cc4)CC3)cc2)cc1S(=O)(=O)C(F)(F)F [AZD4320] + Nc1ccn([C@@H]2O[C@H](CO)[C@@H](O)C2(F)F)c(=O)n1 [Gemcitabine] (first compound max 1 µM, 7x7, partner max 0.3 µM) | 0.338 | 0.615 | 0.586 | 0.589 | 0.582 | 0.966 | 0.724 | 0.569 | 0.547 | 0.501 | 0.872 | 1 | 0.482 | 0.95 | 0.97 | 0.998 | -0.0764 | 0.0159 | -0.0009 | -0.0153 | 0.0148 | 0.0595 | 0.003 | -0.078 | -0.0121 | -0.0098 | 0.0048 | 0.0268 | 0.0147 | 0.0326 | -0.0171 | 0.0132 | 0.067 | 0.0845 | 0.501 | 0.349 |
| C[C@@H]1COCCN1c1cc(C2([S@](C)(=N)=O)CC2)nc(-c2ccnc3[nH]ccc23)n1 [AZD6738] + Nc1ccn([C@@H]2O[C@H](CO)[C@@H](O)C2(F)F)c(=O)n1 [Gemcitabine] (first compound max 10 µM, 7x7, partner max 0.3 µM) | 0.368 | 0.526 | 0.313 | 0.888 | 0.631 | 0.777 | 0.817 | 0.852 | 0.837 | 0.83 | 0.794 | 0.866 | 0.975 | 0.958 | 0.749 | 0.936 | -0.0525 | 0.0446 | 0.018 | 0.0606 | 0.0682 | 0.0071 | -0.0644 | 0.0818 | -0.0247 | 0.0509 | 0.107 | -0.0837 | – | 0.128 | -0.007 | 0.0306 | -0.0523 | 0.0857 | 0.553 | 0.398 |
| N#Cc1cnc(Nc2cc(NC[C@H]3CNCCO3)c(C(F)(F)F)cn2)cn1 [SRA737] + CCc1c2c(nc3ccc(O)cc13)-c1cc3c(c(=O)n1C2)COC(=O)[C@]3(O)CC [SN-38] (first compound max 10 µM, 7x7, partner max 0.3 µM) | 0.345 | 0.883 | 0.25 | 0.78 | 0.86 | 0.928 | 0.876 | 0.657 | 0.59 | 0.61 | 0.818 | 0.973 | 0.86 | 0.893 | 0.91 | 0.818 | -0.0192 | -0.0712 | -0.0041 | -0.067 | -0.006 | -0.0729 | -0.0554 | 0.112 | -0.0679 | -0.0295 | -0.0473 | -0.111 | -0.0016 | 0.135 | -0.0185 | -0.0739 | 0.0019 | -0.0347 | – | 0.408 |
